# Tests used:
# ApGLNT1 [1] = molecular target: T1, ApGLNT1 (Acyrthosiphon pisum, UniProt F8RL01); test: two-electrode voltage clamp, inward current in Xenopus oocytes; type: cell-based
# T1 sequence (F8RL01 1-500): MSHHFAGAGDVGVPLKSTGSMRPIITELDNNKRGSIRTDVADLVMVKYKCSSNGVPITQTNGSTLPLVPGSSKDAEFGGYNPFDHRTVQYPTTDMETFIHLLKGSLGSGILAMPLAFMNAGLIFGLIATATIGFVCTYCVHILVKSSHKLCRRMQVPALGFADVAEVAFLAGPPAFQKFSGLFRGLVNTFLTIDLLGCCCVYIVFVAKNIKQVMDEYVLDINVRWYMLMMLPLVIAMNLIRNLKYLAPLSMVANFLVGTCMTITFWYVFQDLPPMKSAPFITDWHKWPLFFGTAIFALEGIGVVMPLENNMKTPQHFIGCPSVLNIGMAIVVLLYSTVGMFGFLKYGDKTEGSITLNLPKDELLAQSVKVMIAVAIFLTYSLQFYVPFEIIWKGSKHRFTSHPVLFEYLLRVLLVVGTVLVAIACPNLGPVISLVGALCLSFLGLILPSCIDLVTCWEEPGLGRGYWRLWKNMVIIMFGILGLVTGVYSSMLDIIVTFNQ
# PcitGLNT1 [2] = molecular target: T2, PcitGLNT1 (Planococcus citri, UniProt A0A2L0RIC1); test: as above; type: cell-based
# T2 sequence (A0A2L0RIC1 1-502): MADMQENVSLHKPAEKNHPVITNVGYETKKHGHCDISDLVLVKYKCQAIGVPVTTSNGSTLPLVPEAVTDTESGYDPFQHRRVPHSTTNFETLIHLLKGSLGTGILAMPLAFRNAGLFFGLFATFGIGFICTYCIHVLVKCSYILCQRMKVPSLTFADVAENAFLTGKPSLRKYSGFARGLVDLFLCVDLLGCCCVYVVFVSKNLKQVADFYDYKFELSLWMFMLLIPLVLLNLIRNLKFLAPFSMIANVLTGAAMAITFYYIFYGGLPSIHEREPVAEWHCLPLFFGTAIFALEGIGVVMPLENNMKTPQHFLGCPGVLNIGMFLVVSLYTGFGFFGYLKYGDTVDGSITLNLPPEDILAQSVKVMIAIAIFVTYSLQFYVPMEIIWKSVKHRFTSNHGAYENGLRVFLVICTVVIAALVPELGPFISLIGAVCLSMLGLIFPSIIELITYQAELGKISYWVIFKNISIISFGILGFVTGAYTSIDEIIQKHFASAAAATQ
# PhumGLNT1 [3] = molecular target: T3, PhumGLNT1 (Pediculus humanus, UniProt A0A2L0RIB5); test: as above; type: cell-based
# T3 sequence (A0A2L0RIB5 1-513): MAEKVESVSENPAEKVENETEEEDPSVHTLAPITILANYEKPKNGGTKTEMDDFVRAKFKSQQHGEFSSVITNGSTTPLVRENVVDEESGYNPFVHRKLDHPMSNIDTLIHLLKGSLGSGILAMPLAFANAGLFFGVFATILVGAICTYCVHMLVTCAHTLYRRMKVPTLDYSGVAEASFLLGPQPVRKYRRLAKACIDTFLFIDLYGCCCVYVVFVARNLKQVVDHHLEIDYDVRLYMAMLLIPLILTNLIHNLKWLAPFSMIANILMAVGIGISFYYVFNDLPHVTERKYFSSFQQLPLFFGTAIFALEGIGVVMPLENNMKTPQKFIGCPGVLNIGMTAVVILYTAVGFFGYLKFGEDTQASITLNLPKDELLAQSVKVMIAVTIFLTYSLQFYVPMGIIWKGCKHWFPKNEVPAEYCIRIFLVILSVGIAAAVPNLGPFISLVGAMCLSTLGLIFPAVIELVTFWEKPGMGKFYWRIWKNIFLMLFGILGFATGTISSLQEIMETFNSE
# DcitGLNT1 [4] = molecular target: T4, DcitGLNT1 (Diaphorina citri, UniProt A0A2L0RID4); test: as above; type: cell-based
# T4 sequence (A0A2L0RID4 1-508): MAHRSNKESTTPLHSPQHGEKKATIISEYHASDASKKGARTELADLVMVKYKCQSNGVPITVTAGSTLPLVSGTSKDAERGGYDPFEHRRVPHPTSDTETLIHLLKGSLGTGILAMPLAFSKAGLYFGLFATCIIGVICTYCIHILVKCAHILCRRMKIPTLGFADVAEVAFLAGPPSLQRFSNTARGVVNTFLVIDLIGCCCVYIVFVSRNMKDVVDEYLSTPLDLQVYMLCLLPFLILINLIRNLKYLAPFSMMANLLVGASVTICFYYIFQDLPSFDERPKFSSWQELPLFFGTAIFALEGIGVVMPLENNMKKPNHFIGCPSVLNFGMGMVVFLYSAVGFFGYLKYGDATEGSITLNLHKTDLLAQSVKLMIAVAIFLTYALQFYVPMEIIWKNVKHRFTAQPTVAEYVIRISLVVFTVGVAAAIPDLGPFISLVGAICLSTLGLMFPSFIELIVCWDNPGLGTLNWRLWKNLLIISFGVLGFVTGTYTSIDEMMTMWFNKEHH
# PhumGLNT1 [5] = molecular target: T3, PhumGLNT1; test: cell-based
# ApGLNT1 [6] = molecular target: T1, ApGLNT1; test: cell-based
# DcitGLNT1 [7] = molecular target: T4, DcitGLNT1; test: cell-based
# PcitGLNT1 [8] = molecular target: T2, PcitGLNT1; test: cell-based
Compound,EC50 (ApGLNT1 [1]),EC50 (PcitGLNT1 [2]),EC50 (PhumGLNT1 [3]),EC50 (DcitGLNT1 [4]),IC50 (PhumGLNT1 [5]),IC50 (ApGLNT1 [6]),IC50 (DcitGLNT1 [7]),IC50 (PcitGLNT1 [8])
NC(=O)CC[C@H](N)C(=O)O [glutamine],5.7 ± 0.8 mM,2.1 ± 0.2 mM,1.5 ± 0.2 mM,35.2 ± 18.5 mM,–,–,–,–
N=C(N)NCCC[C@H](N)C(=O)O [arginine],–,–,–,–,2.8 ± 2 mM,5.1 ± 0.9 mM,6.1 ± 0.8 mM,2.5 ± 0.2 mM
